The values that follow come from patent US20250096297A1, “NOVEL AQUEOUS-PHASE REDOX FLOW BATTERIES” (KEMIWATT, priority 2022, published 2025).

The structures appear in SMILES notation. Converted amounts (≈) assume the structure as drawn. Like-named read-outs stand apart in the source and are kept apart here.

As usually defined, the pKa is the pH at which an ionisable group is half protonated. Broadly, the solubility is the concentration that dissolves in the medium under given conditions.

For data set [1] the following is noted: conjugate acid of the base, cited from earlier work.
Data set [2] in a line: Solubility in water of formula (I) compounds in the presence of different bases (Example 2). To be noted: for relative solubility, 1,1,3,3-Tetramethyl guanidine: 1.2 mol/L 1,1,3,3-Tetramethyl guanidine; for relative solubility, (NH3)aq: 1.2 mol/L (NH3)aq; for relative solubility, CsOH: 1.2 mol/L CsOH; for relative solubility, KOH: 1.2 mol/L KOH; for relative solubility, LiOH: 1.2 mol/L LiOH; for relative solubility, N-Ethyl pyrrolidine: 1.2 mol/L N-Ethyl pyrrolidine; for relative solubility, NEt3: 1.2 mol/L NEt3; for relative solubility, NMe4OH: 1.2 mol/L NMe4OH; for relative solubility, PBu4OH: 1.2 mol/L PBu4OH; for relative solubility, RbOH: 1.2 mol/L RbOH; for solubility: aqueous NaOH solution, aqueous buffer.

Data set [3] in a line: Chemical compatibility of bases with the posolyte: SOC of ferricyanide solution by linear voltammetry. To be noted: 0.5 mol/L ferricyanide, 0.1 mol/L compound, pH about 13, 7 days in sealed flask. The data set is classed as physicochemical.
Data set [4] can be described thus: physchem. To be noted: aqueous buffer.
For data set [5] the following is noted: formed cation, cited from earlier work; for Volume: derived from the literature.
A short description of data set [6]: physchem. To be noted: aqueous buffer. This is another data set of the same source.
The mark [7] stands for this setting: literature (Charlot) or predicted by COSMO-RS.
[8] abbreviates: relative to solubility in 1 mol/L NaOH.
Setting [9] is: footnote a (Hall, J. Amer. Chem. Soc 1957).
[10] abbreviates: footnote b, hexa-coordinate cation within a crystal (Shannon 1976).

Consider `C[n+]1ccccc1.[OH-]` [N-Methyl pyridinium, N-methylpyridinium hydroxide], for which, in data set [1] (setting [7]), the pKa is on record as 14.

For the compound `C[N+]1(C)CCCCC1.[OH-]` [N,N-Dimethyl piperidinium, N,N-dimethylpiperidinium hydroxide], in data set [1] (setting [7]), the pKa was 14.

`O=C1c2ccccc2C(=O)c2c(O)ccc(O)c21` [drawing 31, quinizarin]: in data set [2] (setting [8]), the “relative solubility, 1,1,3,3-Tetramethyl guanidine” value was “×82”; the “relative solubility, (NH3)aq” value is “×3”; the “relative solubility, CsOH” value was “×32”; the “relative solubility, KOH” value is reported as “×8”. In data set [2] (setting [8]), the “relative solubility, LiOH” value is on record as “×0.03”; the “relative solubility, N-Ethyl pyrrolidine” value is recorded as “×13”; the “relative solubility, NEt3” value is listed as “×3”; the “relative solubility, NMe4OH” value is “×213”. Besides, in data set [2] (setting [8]), the “relative solubility, PBu4OH” value is given as “×211” and the “relative solubility, RbOH” value was “×16”. In addition, the “relative solubility, DBU” value in data set [2] (1.2 mol/L DBU, relative to solubility in 1 mol/L NaOH) was “×234”. The “relative solubility, N-Methyl pyrrolidine” value in data set [2] (1.2 mol/L N-Methyl pyrrolidine, relative to solubility in 1 mol/L NaOH) is listed as “×7”. Also, the “relative solubility, Trimethyl, benzyl ammonium” value in data set [2] (1.2 mol/L Trimethyl, benzyl ammonium, relative to solubility in 1 mol/L NaOH) was “×255”. Also, the solubility in data set [2] came out at 3.8 mM.

`CCN(C)C` [Dimethyl, ethyl amine, ethyldimethylamine]: in data set [1] (setting [9]), the pKa is on record as 10.0^a.

On to `C1CCC2=NCCCN2CC1` [DBU, 1,8-diazabicyclo[5.4.0]undec-7-ene], for which the pKa in data set [1] (setting [7]) was 13.5.

As for `O=C(O)[C@@H]1CCCN1` [proline], the “SOC after a contact time of 7 days with ferricyanide” value in data set [3] is given as 77.7%.

As to `C[N+](C)(C)Cc1ccccc1.[OH-]` [Tetramethyl, benzyl ammonium, trimethyl benzylammonium hydroxide], the pKa in data set [1] (setting [7]) was 14.

Regarding `O=C1c2ccccc2C(=O)c2c1ccc(O)c2O` [alizarin], the solubility in data set [4] was 23 mM (≈ 5520 µg/mL).

On to `C[N+]1(C)CCCC1.[OH-]` [N,N-Dimethyl pyrrolidinium, N,N-dimethylpyrrolidinium hydroxide], for which, in data set [1] (setting [7]), the pKa is 14.

In the case of `[K+].[OH-]` [Potassium hydroxide], the Volume in data set [5] was 11.0 Å^3. Also, in data set [5] (setting [10]), the Radius is on record as 1.38^b Å.

Consider `CCCCCCCCCCCC[N+](C)(C)CCCCCCCCCCCC` [Didodecyl, dimethyl ammonium, didodecyldimethylammonium hydroxide], for which the pKa in data set [1] (setting [7]) is 14.

Turning to `CCN1CCCCC1` [N-Ethyl piperidine, N-ethylpiperidine], in data set [1] (setting [9]), the pKa is 10.4^a.

Turning to `CN1CCCC1` [N-Methyl pyrrolidine, N-methylpyrrolidine], the pKa in data set [1] (setting [9]) is 10.5^a.

In the case of `CCN(C)CC` [Methyl, diethyl amine, diethylmethylamine], the pKa in data set [1] (setting [9]) is 10.3^a.

With `CN(C)C(=N)N(C)C` [1,1,3,3-Tetramethyl guanidine, 1,1,3,3-tetramethylguanidine], the pKa in data set [1] (setting [7]) was 13.0.

Take `[Na+].[OH-]` [Sodium hydroxide]: in data set [5], the Volume is 4.4 Å^3. In addition, the Radius in data set [5] (setting [10]) is recorded as 1.02^b Å.

With `[Li+].[OH-]` [Lithium hydroxide], the Volume in data set [5] is reported as 1.8 Å^3. Also, the Radius in data set [5] (setting [10]) is on record as 0.76^b Å.

Regarding `[Cs+].[OH-]` [Caesium hydroxide], the Volume in data set [5] is reported as 19.5 Å^3. Besides, the Radius in data set [5] (setting [10]) is on record as 1.67^b Å.

Consider `O=C(O)c1ccc2c(c1)C(=O)c1ccccc1C2=O`, for which, in data set [2] (setting [8]), the “relative solubility, 1,1,3,3-Tetramethyl guanidine” value is reported as “×4100”; the “relative solubility, (NH3)aq” value is “×50”; the “relative solubility, CsOH” value was “×70”; the “relative solubility, KOH” value is recorded as “×10”. In data set [2] (setting [8]), the “relative solubility, LiOH” value was “×14”; the “relative solubility, N-Ethyl pyrrolidine” value is “×2000”; the “relative solubility, NEt3” value is listed as “×2000”; the “relative solubility, NMe4OH” value is reported as “×3700”. In addition, in data set [2] (setting [8]), the “relative solubility, PBu4OH” value is “×4100” and the “relative solubility, RbOH” value is “×150”. Also, the “relative solubility, NMe3” value in data set [2] (1.2 mol/L NMe3, relative to solubility in 1 mol/L NaOH) is given as “×2000”. Further, the solubility in data set [2] came to 0.25 mM.

On to `CCN1CCCC1` [N-Ethyl pyrrolidine, N-ethylpyrrolidine], for which the pKa in data set [1] (setting [7]) is given as 10.7.

As for `C[N+](C)(C)C` [Tetramethyl ammonium, tetramethylammonium hydroxide], the pKa in data set [1] (setting [7]) was 14.

`C[N+](C)(C)CCO.[OH-]` [CholineOH, choline hydroxide]: the “SOC after a contact time of 7 days with ferricyanide” value in data set [3] is reported as 82.7%.

Regarding `CCCCCCCCCCCCCCCC[N+](C)(C)C` [Trimethyl, cetyl ammonium, trimethyl cetylammonium hydroxide], the pKa in data set [1] (setting [7]) is 14.

For the compound `[OH-].[Rb+]` [Rubidium hydroxide], the Volume in data set [5] was 14.7 Å^3. Further, the Radius in data set [5] (setting [10]) is on record as 1.52^b Å.

For `N` [Ammonia], the Volume in data set [5] is listed as 13.6 Å^3. Besides, the Radius in data set [5] (footnote c (Sidey 2016)) is 1.48^c Å.

Take `O=C1c2ccccc2C(=O)c2c(O)ccc(O)c21` [quinizarin]: the concentration in solution in data set [6] (solubility) was 31 mM (≈ 7450 µg/mL).
